Like-named read-outs stand apart in the source and are kept apart here.

The values that follow come from patent US20220257774A1, “AROMATIC AMINE AR AHD BET TARGETING PROTEIN DEGRADATION CHIMERA COMPOUND AND USE” (HINOVA PHARMACEUTICALS INC., priority 2019, published 2022).

The subject of one assay is LNCaP/AR cells. The assay is described as follows: Inhibition of the proliferation of LNCap/AR cells (CCK-8). Type of assay: cell-based. Conditions: read-out: LNCap/AR IC50. The procedure, abridged: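 LNCaP/AR cells (1000/well, RPMI1640 + 10% FBS) were treated for 6 days at 37 °C with 9-point 3-fold dilutions from 10 μM final, 0.1% DMSO, in duplicate. Viability was read by CCK-8 absorbance at 450 nm after 1 h, and IC50 came from a dose-response-inhibition fit.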

A further assay has as its system 22RV1 cells. The assay is described as follows: Inhibition of the proliferation of drug-resistant prostate cancer cell 22RV1 (CCK-8). The settings on record: 22RV1 cells (enzalutamide-resistant), same method. Type of assay: cell-based. The protocol: (1) Experimental materials and instruments: LNCaP/AR cell line and 22RV1 cell line (provided by Sichuan Kangcheng Biotechnology Co., Ltd.) Fetal bovine serum FBS (Gibco, Cat. No. 10099-141) 0.01M PBS (Biosharp, Cat. No. 162262) RIPM1640 medium (Hyclone, Cat. No. 308090.01) Penicillin-Streptomycin (Hyclone, Cat. No. SV30010) Cell counting kit-8 (Signalway Antibody, Cat. No. CP002) DMSO (Sigma, Cat. No. D5879) Centrifuge Tube, 15 ml (Excell Bio, Cat. No. CS015-0001) Cell Culture Dish, (Excell Bio, Cat. No. CS016-0128) 96-well cell culture plate (Corning, Cat. No. 3599) Microplate reader (Thermo Multiskan MK3 type)
a. Preparation of Buffer Cell culture medium: RIPM1640 medium, 10% FBS, 1% Pen Strep: PBS buffer: PBS powder was dissolved in 2 L of ultrapure water and sterilized. b. Experimental Procedures 1) LNCaP/AR cells were subcultured in cell culture media, and then the cells in good growth condition were seeded in a 96-well plate at 80 μL/well (1000 cells/well), and cultured overnight in a 37° C., 5% CO2 cell incubator. 2) The drug was prepared into a 10 mM stock solution with dimethyl sulfoxide (DMSO). Prior to use, the stock solution was diluted in a ratio of […] with DMSO, and then diluted at a 3-fold gradient to obtain 9 serial concentrations. Then, each concentration of compound was further diluted in a ratio of 1:200 with the culture medium (to ensure that the DMSO concentration in the culture system was 0.1%), and two wells were set for each concentration. 20 μL of the diluted compound solution was added to the well of the cell culture (with a final concentration of 10 μM, 3.3 μM, 1.1 μM . . . ), and then the plate was gently tapped to thoroughly mix. In addition, the experiment included 3 negative control wells only containing cells and 3 blank control wells only containing culture medium (6 wells were each added with DMSO diluted in a ratio of 1:200 with 20 μL of culture medium). c. Result Detection: 1) After culturing for 6 days, 10 μL of CCK-8 was added to each well, and the plate was further incubated for 1 h in a 37° C., 5% CO2 cell incubator. 2) The absorbance (OD value) was measured at 450 nm with a multifunctional microplate reader. 3) The data was analyzed by the Dose-response-inhibition equation in the software GraphPad Prism5, and the IC50 value was obtained. 2. Biological assay of the inhibition on the proliferation of other drug-resistant prostate cancer cells
The same test method was used to determine the inhibitory activity of the compound according to the present invention against drug-resistant prostate cancer cell 22RV1.

Where [1] appears, read: LNCaP/AR cells, 6 days culture, CCK-8.
Where [2] appears, read: 144 h, LNCaP/AR cells, 6 days culture, CCK-8.

For the compound `Cc1ccc(-c2c(C)noc2C)cc1N(c1ccc(C2(C#N)CC2)cc1)C1CN([C@H]2CC[C@H](Nc3cc4c(cc3F)C(=O)N(C3CCC(=O)NC3=O)C4=O)CC2)C1` (stereo partly shown) [Compound 74], the IC50 in the assay with LNCaP/AR cells (setting [1]) and in the assay on 22RV1 cells was over 2000 nM throughout.
Regarding `Cc1ccc(-c2c(C)noc2C)cc1N(CC1CN(C2CCN(c3ccc4c(c3)C(=O)N(C3CCC(=O)NC3=O)C4)CC2)C1)c1ccc(C2(C#N)CC2)cc1` (stereo not shown) [Compound 75, 1-(4-((5-(3,5-dimethylisoxazol-4-yl)-2-methylphenyl)((1-(1-(2-(2,6-dioxopiperidin-3-yl)-3-oxoisoindolin-5-yl)piperidin-4-yl)azetidin-3-yl)methyl)amino)phenyl)cyclopropane-1-carbonitrile], the IC50 with LNCaP/AR cells (setting [2]) and in the assay on 22RV1 cells (Homo sapiens) was over 2000 nM each time.
Take `Cc1ccc(-c2c(C)noc2C)cc1N(CC1CN(C2CCN(c3ccc4c(c3)CN(C3CCC(=O)NC3=O)C4=O)CC2)C1)c1ccc(C2(C#N)CC2)cc1` (stereo not shown) [Compound 76, 1-(4-((5-(3,5-dimethylisoxazol-4-yl)-2-methylphenyl)((1-(1-(2-(2,6-dioxopiperidin-3-yl)-1-oxoisoindolin-5-yl)piperidinyl-4-yl)azetidin-3-yl)methyl)amino)phenyl)cyclopropane-1-carbonitrile]: the IC50 with LNCaP/AR cells (setting [2]) and in the assay with 22RV1 cells (Homo sapiens) was over 2000 nM throughout.
With `Cc1ccc(-c2c(C)noc2C)cc1N(CC1CCN(C2CCN(c3ccc4c(c3)C(=O)N(C3CCC(=O)NC3=O)C4=O)CC2)CC1)c1ccc(C2(C#N)CC2)cc1` (stereo not shown) [Compound 77, 1-(4-((5-(3,5-dimethylisoxazol-4-yl)-2-methylphenyl)((1′-(2-(2,6-dioxopiperidin-3-yl)-1,3-dioxoisoindolin-5-yl)-[1,4′-bipiperidine]-4-yl)methyl)amino)phenyl)cyclopropane-1-nitrile], the IC50 in the assay with LNCaP/AR cells (LNCaP/AR, 144 h) is over 2000 nM; in the assay on 22RV1 cells (Homo sapiens), over 2000 nM.
For the compound `Cc1ccc(-c2c(C)noc2C)cc1N(CC1CCN(CC2CN(c3ccc4c(c3)C(=O)N(C3CCC(=O)NC3=O)C4=O)C2)CC1)c1ccc(C2(C#N)CC2)cc1` (stereo not shown) [Compound 78, 1-(4-((5-(3,5-dimethylisoxazol-4-yl)-2-methylphenyl)((1-((1-(2-(2,6-dioxopiperidin-3-yl)-1,3-dioxoisoindolin-5-yl)azetidin-3-yl)methyl)piperidin-4-yl)methyl)amino)phenyl)cyclopropane-1-carbonitrile], the IC50 with LNCaP/AR cells (setting [2]) and in the assay with 22RV1 cells (Homo sapiens) was over 2000 nM throughout.
With `Cc1ccc(-c2c(C)n[nH]c2C)cc1N(CCCCCOCC(=O)N[C@H](C(=O)N1C[C@H](O)C[C@H]1C(=O)N[C@@H](C)c1ccc(-c2scnc2C)cc1)C(C)(C)C)c1ccc(C#N)c(Cl)c1` [Compound 79, (2S,4R)-1-((S)-2-(2-((5-((3-chloro-4-cyanophenyl)(5-(3,5-dimethyl-1H-pyrazol-4-yl)-2-methylphenyl)amino)pentyl)oxy)acetylamino)-3,3-dimethylbutyryl)-4-hydroxy-N—((S)-1-(4-(4-methylthiazol-5-yl)phenyl)ethyl)pyrrolidinyl-2-formamide], the IC50 in the assay on LNCaP/AR cells (setting [1]) is 101 to 500 nM; in the assay on 22RV1 cells, over 2000 nM.
In the same order, the values of `CC(=O)O[C@@H]1C[C@@H](C(=O)N[C@@H](C)c2ccc(-c3scnc3C)cc2)N(C(=O)[C@@H](NC(=O)COCCCCCN(c2ccc(C#N)c(Cl)c2)c2cc(-c3c(C)n[nH]c3C)ccc2C)C(C)(C)C)C1` [Compound 80] are 501 to 2000 nM and over 2000 nM.
`Cc1ccc(-c2c(C)noc2C)cc1N(CC(C)O[C@@H]1CCN(c2ccc3c(c2)C(=O)N(C2CCC(=O)NC2=O)C3=O)C1)c1ccc(C2(C#N)CC2)cc1` (stereo partly drawn) [Compound 102, 1-(4-((5-(3,5-Dimethylisoxazol-4-yl)-2-methylphenyl)(2-(((3R)-1-(2-(2,6-dioxopiperidin-3-yl)-1,3-dioxoisoindolin-5-yl)pyrrolidin-3-yl)oxy)propyl)amino)phenyl)cyclopropanecarbonitrile]: the IC50 in the assay with LNCaP/AR cells (setting [2]) and with 22RV1 cells (Homo sapiens) was over 2000 nM throughout.
In the case of `Cc1ccc(-c2c(C)noc2C)cc1N(CC(C)O[C@H]1CCN(c2ccc3c(c2)C(=O)N(C2CCC(=O)NC2=O)C3=O)C1)c1ccc(C2(C#N)CC2)cc1` (stereo partly drawn) [Compound 103, 1-(4-((5-(3,5-Dimethylisoxazol-4-yl)-2-methylphenyl)(2-(((3S)-1-(2-(2,6-dioxopiperidin-3-yl)-1,3-dioxoisoindolin-5-yl)pyrrolidin-3-yl)oxy)propyl)amino)phenyl)cyclopropanecarbonitrile], the IC50 with LNCaP/AR cells (setting [2]) and in the assay with 22RV1 cells (Homo sapiens) was over 2000 nM throughout.
`Cc1ccc(-c2c(C)noc2C)cc1N(CC1CCC(COc2ccc3c(c2)C(=O)N(C2CCC(=O)NC2=O)C3=O)CC1)c1ccc(C#N)c(Cl)c1` (stereo not shown) [Compound 104, 2-Chloro-4-((5-(3,5-dimethylisoxazol-4-yl)-2-methylphenyl)((1r,4r)-4-((2-(2,6-dioxopiperidin-3-yl)-1,3-dioxoisoindolin-5-yl)oxy)methyl)cyclohexyl)methyl)amino)benzonitrile]: the IC50 in the assay on LNCaP/AR cells (setting [1]) lay in the range of 501 to 2000 nM; in the assay on 22RV1 cells, 101 to 500 nM.
The matching figures for `Cc1ccc(-c2c(C)noc2C)cc1N(CC1CCC(COc2ccc3c(c2)CN(C2CCC(=O)NC2=O)C3=O)CC1)c1ccc(C#N)c(Cl)c1` (stereo not shown) [Compound 105, 2-Chloro-4-((5-(3,5-dimethylitsoxazol-4-yl)-2-methylphenyl)((1r,4r)-4-((2-((2,6-dioxopiperidin-3-yl)-1-oxoisoindolin-5-yl)oxy)methyl)cyclohexyl)methyl)amino)benzonitrile]: 501 to 2000 nM and 101 to 500 nM.
As to `Cc1ccc(-c2c(C)noc2C)cc1N(CC1CCN(c2cc3c(cc2F)C(=O)N(C2CCC(=O)NC2=O)C3=O)C1)c1ccc(C2(C#N)CC2)cc1` (stereo not shown) [Compound 107], the IC50 with LNCaP/AR cells (setting [2]) and with 22RV1 cells (Homo sapiens) was over 2000 nM throughout.
Turning to `Cc1ccc(-c2c(C)noc2C)cc1N(CCCCOc1ccc2c(c1)C(=O)N(C1CCC(=O)NC1=O)C2=O)c1ccc(C2(C#N)CC2)cc1` (stereo not shown) [Compound 108, 1-(4-((5-(3,5-Dimethylisoxazol-4-yl)-2-methylphenyl)(4-((2-(2,6-dioxopiperidin-3-yl)-1,3-dioxoisoindolin-5-yl)oxy)butyl)amino)phenyl)cyclopropanecarbonitrile], the IC50 in the assay on LNCaP/AR cells (setting [2]) was over 2000 nM; in the assay on 22RV1 cells (Homo sapiens), 501 to 2000 nM.
In the same order, the values of `Cc1ccc(-c2c(C)noc2C)cc1N(CC1CCN(C2CN(c3ccc4c(c3)C(=O)N(C3CCC(=O)NC3=O)C4=O)C2)CC1)c1ccc(C2(C#N)CC2)cc1` (stereo not shown) [Compound 109, 1-(4-((5-(3,5-Dimethylisoxazol-4-yl)-2-methylphenyl)((1-(1-(2-(2,6-dioxopiperidin-3-yl)-1,3-dioxoisoindolin-5-yl)azetidin-3-yl)piperidin-4-yl)methyl)amino)phenyl)cyclopropanecarbonitrile] are under 100 nM and under 100 nM.
Turning to `Cc1ccc(-c2c(C)noc2C)cc1N(CCOC1(C)CN(c2ccc3c(c2)C(=O)N(C2CCC(=O)NC2=O)C3=O)C1)c1ccc(C2(C#N)CC2)cc1` (stereo not shown) [Compound 110, 1-(4-((5-(3,5-Dimethylisoxazol-4-yl)-2-methylphenyl)(2-((1-(2-(2,6-dioxopiperidin-3-yl)-1,3-dioxoisoindolin-5-yl)-3-methylazetidin-3-yl)oxy)ethyl)amino)phenyl)cyclopropanecarbonitrile], the IC50 in the assay with LNCaP/AR cells (setting [2]) and in the assay on 22RV1 cells (Homo sapiens) was over 2000 nM in each case.
Consider `Cc1ccc(-c2c(C)noc2C)cc1N(CCOC1(C)CN(c2cc3c(cc2F)CN(C2CCC(=O)NC2=O)C3=O)C1)c1ccc(C2(C#N)CC2)cc1` (stereo not shown) [Compound 112, 1-(4-((5-(3,5-Dimethylisoxazol-4-yl)-2-methylphenyl)(2-((1-(2-(2,6-dioxopiperidin-3-yl)-6-fluoro-3-oxoisoindolin-5-yl)-3-methylazetidin-3-yl)oxy)ethyl)amino)phenyl)cyclopropanecarbonitrile], for which the IC50 with LNCaP/AR cells (setting [2]) and in the assay on 22RV1 cells (Homo sapiens) was over 2000 nM each time.
Turning to `Cc1ccc(-c2c(C)noc2C)cc1N(C[C@H]1CC[C@H](Nc2cc3c(cc2F)CN(C2CCC(=O)NC2=O)C3=O)CC1)c1ccc(C2(C#N)CC2)c(Cl)c1` (stereo partly shown) [Compound 114], the IC50 with LNCaP/AR cells (setting [1]) and in the assay on 22RV1 cells was 101 to 500 nM throughout.
